Measured values from patent publication US10501805B2, “Methods for determining responsiveness to MEK/ERK inhibitors” (CROWN BIOSCIENCE, INC. (TAICANG), priority 2014, dated 2019).

What was measured:
Type in all cases: cell-based
panel of 50 cell lines = experiment: Sensitivity of cell line panel by gene mutation status
Description: We examined the anti-proliferation activity of a MEK inhibitor, trametinib, and an ERK1/2 inhibitor, SCH772984, in a panel of […] (see Table 1).
We divided the 63 cell lines into sensitive, insensitive, and uncertain groups according to their IC50's for SCH772984 and Trametinib, respectively, then detected genes with differential expression or different mutation types between sensitive and insensitive groups. These genes were enriched in several cancer related pathways.
The 63 cell lines were divided into 3 groups (See Table 1): a sensitive group (IC50 values were less than 1), an insensitive group (IC50 values are greater than 10), and an uncertain group (the rest). Accordingly, we got 25 sensitive and 22 insensitive cell lines for SCH772984, and 34 sensitive and 24 insensitive cell lines for Trametinib. Only cell lines with genomic data were used in subsequent analysis. The differentially expressed genes and enriched pathways were analysed using GSEA software, the genes with different mutation types were detected using Fisher's exact test.
29 sensitive and 20 insensitive cell lines have mutation information, and ADAM12, COL14A1, TNN and TP53 were identified by P-value cutoff of 0.01 (See Table 3 and FIG. 1-5).
21 sensitive and 18 insensitive cell lines have mutation information, and ADAM12, PEX5L, TNN and TP53 were identified by P-value cutoff of 0.01 (See Table 3 and FIGS. 6-10).

HCT-15 = experiment: CellTiter-Glo cell viability, IC50 determination; conditions: Homo sapiens, 72 h; HCT-15 cell line; 3-day CTG assay; read-out: Absolute IC50
Protocol: (§1) All the cells will be cultured in the media supplemented with 10% FBS except for which are marked specially, in the temperature of 37° C., 5% CO2 and 95% humidity.
(§2) Cell viability is assayed by using CellTiter-Glo® Luminescent Cell Viability Assay Kit (Cat. No.: G7572, Promega. Store at −20° C.). To prepare the CellTiter_Glo Reagent, the CellTiter-Glo Buffer was thawed and equilibrated to room temperature prior to use. For convenience the CellTiter-Glo Buffer may be thawed and stored at room temperature for up to 48 hours prior to use. The lyophilized CellTiter-Glo Substrate is equilibrated to room temperature prior to use. The appropriate volume (100 ml) of CellTiter-Glo Buffer is transferred into the amber bottle containing CellTiter-Glo Substrate to reconstitute the lyophilized enzyme/substrate mixture, which forms the CellTiter-Glo Reagent. In certain cases, the entire liquid volume of the CellTiter-Glo Buffer bottle may be added to the CellTiter-Glo Substrate vial. Mix by gently vortexing, swirling or by inverting the contents to obtain a homogeneous solution. The CellTiter-Glo Substrate should go into solution easily in less than one minute.
(§3) The day before the experiment (Day −1), cells were dissociated during the logarithmic growth period with Cell Disassociation Buffer (Gibco 13151-014) and mixed with appropriate cell media and centrifuge at 1000 rpm for 3 minutes. The cells were re-suspended and counted using Countstar before adjusting cell concentrations to optimized density (i.e. 4.44×10^4 cells/ml) with respective culture medium listed in Table 1 for 3-day CTG assay (The cell density was optimized before actual study; cell density used in the test may vary for different cell lines). 90 μl cell suspensions were added to two 96-well plates (plates A and B) with the final cell density of 4×10^3 cells/well for 3-day CTG assay (the cell density was optimized before actual study; cell density used in the test may vary for different cell lines). The plate A and B group were incubated for overnight in humidified incubator at 37° C. with 5% CO2.
(§4) On Day 0, for plate A group, 10 μl culture medium was added to each well for T0 reading. CellTiter-Glo® Reagent was added at equal volume of cell culture medium present in each well (e.g., add 100 μl of reagent to 100 μl of medium containing cells for a 96-well plate). Contents were mixed for 2 minutes on an orbital shaker to facilitate cell lysis. The plate was allowed to incubate at room temperature for 10 minutes to stabilize luminescent signal. Backseal black sticker was added to the bottom of each plate. Luminescence was recorded using EnVision Multi Label Reader. This formed the basis for T0 value.
(§5) On Day 0, the test articles and positive controls were dissolved at the concentration indicated at Test Article Dilution map. 100× solution in PBS was prepared and then diluted with appropriate culture media (1:10) into 10×working solutions. 10 μl (10×) drug solutions were dispensed in each well (triplicate for each drug concentration) of the plate B group according to plate inoculation map. The test plates were incubated for […] in the humidified incubator at 37° with 5% CO2.
(§6) On Day 3, CellTiter-Glo® Reagent was added at equal volume of cell culture medium present in each well (e.g., add 100 μl of reagent to 100 μl of medium containing cells for a 96-well plate). Contents were mixed for 2 minutes on an orbital shaker to induce cell lysis. The plate was allowed to incubate at room temperature for 10 minutes to stabilize luminescent signal. Backseal black sticker was placed to the bottom of each plate. Luminescence was recorded using EnVision Multi Label Reader.
(§7) In order to calculate IC50s, a dose-response curve was fitted using a nonlinear regression model with a sigmoidal dose response. The formula for calculating surviving rate was shown below; Absolute IC50 is calculated where Y axis set at 50% using GraphPad Prism 5.0. Software. […]

SW620 = experiment: CellTiter-Glo cell viability, IC50 determination; conditions: Homo sapiens, SW-620, 72 h; SW620 cell line; 3-day CTG assay; read-out: Absolute IC50
Protocol: as §1, §2, §3, §4, §5, §6, §7

MDA-MB-231 = experiment: CellTiter-Glo cell viability, IC50 determination; conditions: Homo sapiens, 72 h; MDA-MB-231 cell line; 3-day CTG assay; read-out: Absolute IC50
Protocol: as §1, §2, §3, §4, §5, §6, §7

DLD-1 = experiment: CellTiter-Glo cell viability, IC50 determination; conditions: Homo sapiens, 72 h; DLD-1 cell line; 3-day CTG assay; read-out: Absolute IC50
Protocol: as §1, §2, §3, §4, §5, §6, §7

22RV1 = experiment: CellTiter-Glo cell viability, IC50 determination; conditions: Homo sapiens, 72 h; 22RV1 cell line; 3-day CTG assay; read-out: Absolute IC50
Protocol: as §1, §2, §3, §4, §5, §6, §7

NCI-H23 = experiment: CellTiter-Glo cell viability, IC50 determination; conditions: Homo sapiens, 72 h; NCI-H23 cell line; 3-day CTG assay; read-out: Absolute IC50
Protocol: as §1, §2, §3, §4, §5, §6, §7

PANC-1 = experiment: CellTiter-Glo cell viability, IC50 determination; conditions: Homo sapiens, 72 h; PANC-1 cell line; 3-day CTG assay; read-out: Absolute IC50
Protocol: as §1, §2, §3, §4, §5, §6, §7

HT29 = experiment: CellTiter-Glo cell viability, IC50 determination; conditions: Homo sapiens, HT-29, 72 h; HT29 cell line; 3-day CTG assay; read-out: Absolute IC50
Protocol: as §1, §2, §3, §4, §5, §6, §7

HCC4006 = experiment: CellTiter-Glo cell viability, IC50 determination; conditions: Homo sapiens, 72 h; HCC4006 cell line; 3-day CTG assay; read-out: Absolute IC50
Protocol: as §1, §2, §3, §4, §5, §6, §7

[1] = cells harboring mutations in ADAM12 gene
[2] = cells harboring mutations in TNN gene
[3] = cells harboring mutations in TP53 gene

| IC50 (HCT-15) [µM] | IC50 (SW620) [nM] | IC50 (MDA-MB-231) [µM] | IC50 (DLD-1) [µM] | IC50 (22RV1) [µM] | IC50 (NCI-H23) [nM] | IC50 (PANC-1) [µM] | IC50 (HT29) [nM] | IC50 (HCC4006) [nM] | Structure (SMILES) | sensitivity to inhibitor in cells harboring mutations (panel of 50 cell lines; cells harboring multiple mutations in ADAM 12, PEX5L, TNN and TP53 gene) | sensitivity to inhibitor in cells harboring mutations (panel of 50 cell lines; [1]) | sensitivity to inhibitor in cells harboring mutations (panel of 50 cell lines; cells harboring mutations in PEX5L gene) | sensitivity to inhibitor in cells harboring mutations (panel of 50 cell lines; [2]) | sensitivity to inhibitor in cells harboring mutations (panel of 50 cell lines; [3]) | sensitivity to inhibitor in cells harboring mutations (panel of 50 cell lines; cells harboring multiple mutations in ADAM12, COL14A1, TNN, and TP53 gene) | sensitivity to inhibitor in cells harboring mutations (panel of 50 cell lines; cells harboring mutations in COL14A1 gene) |
| --- | --- | --- | --- | --- | --- | --- | --- | --- | --- | --- | --- | --- | --- | --- | --- | --- |
| 15.6 | 260 | 32.3 | 52.8 | 5.01 | 3690 | 64.3 | 230 | 2770 | O=C(Nc1ccc2[nH]nc(-c3ccncc3)c2c1)[C@@H]1CCN(CC(=O)N2CCN(c3ccc(-c4ncccn4)cc3)CC2)C1 [SCH772984, (R)-1-(2-oxo-2-(4-(4-(pyrimidin-2-yl)phenyl)piperazin-1-yl)ethyl)-N-(3-(pyridin-4-yl)-1H-indazol-5-yl)pyrrolidine-3-carboxamide] | increased sensitivity | increased sensitivity | increased sensitivity | increased sensitivity | increased sensitivity |  |  |
| 29.3 | 10 | 24 | 6.52 | 202 | 300 | 330 | 10 | 410 | CC(=O)Nc1cccc(-n2c(=O)n(C3CC3)c(=O)c3c(Nc4ccc(I)cc4F)n(C)c(=O)c(C)c32)c1 [Trametinib, N-(3-{3-Cyclopropyl-5-[(2-fluoro-4-iodophenyl)amino]-6,8-dimethyl-2,4,7-trioxo-3,4,6,7-tetrahydropyrido[4,3-d]pyrimidin-1(2H)-yl}phenyl)acetamide] |  | increased sensitivity |  | increased sensitivity | increased sensitivity | increased sensitivity | decreased sensitivity |
